ChEMBL document CHEMBL5579802, “Identification of 3,4-dihydropyrimido[4,5-d]pyrimidin-2(1H)-one scaffolds as potent Lck inhibitors as anti-cancer agents” (Bioorg Med Chem Lett, 2024)

Columns and labels:
[1] = test system: IGROV-1; experiment: Antiproliferative activity against human IGROV-1 cells; type: functional
[2] = test system: COLO 201; experiment: Induction of apoptosis in human COLO201 cells assessed as early apoptotic cells at 1 uM by Annexin V-FITC and PI staining based flow cytometry analysis (reference value: 3.2%); type: functional
[3] = test system: EKVX; experiment: Antiproliferative activity against human EKVX cells; type: functional
[4] = test system: COLO 201; experiment: Induction of apoptosis in human COLO201 cells assessed as necrotic cells at 1 uM by Annexin V-FITC and PI staining based flow cytometry analysis (reference value: 0.7%); type: functional
[5] = test system: LOX IMVI; experiment: Antiproliferative activity against human LOX IMVI cells; type: functional
[6] = test system: NCI-H226; experiment: Antiproliferative activity against human NCI-H226 cells; type: functional
[7] = test system: 786-0; experiment: Antiproliferative activity against human 786-0 cells; type: functional
[8] = test system: COLO 201; experiment: Induction of apoptosis in human COLO201 cells assessed as early apoptotic cells at 2 uM by Annexin V-FITC and PI staining based flow cytometry analysis (reference value: 3.2%); type: functional
[9] = test system: PC-3; experiment: Antiproliferative activity against human PC-3 cells; type: functional
[10] = test system: SK-MEL-2; experiment: Antiproliferative activity against human SK-MEL-2 cells; type: functional
[11] = test system: TK-10; experiment: Antiproliferative activity against human TK-10 cells; type: functional
[12] = test system: COLO 201; experiment: Induction of apoptosis in human COLO201 cells assessed as early apoptotic cells at 10 uM by Annexin V-FITC and PI staining based flow cytometry analysis (reference value: 3.2%); type: functional
[13] = test system: T47D; experiment: Antiproliferative activity against human T47D cells; type: functional
[14] = test system: COLO 201; experiment: Induction of apoptosis in human COLO201 cells assessed as necrotic cells at 10 uM by Annexin V-FITC and PI staining based flow cytometry analysis (reference value: 0.7%); type: functional
[15] = test system: OVCAR-8; experiment: Antiproliferative activity against human OVCAR-8 cells; type: functional
[16] = test system: NCI/ADR-RES; experiment: Antiproliferative activity against human NCI/ADR-RES cells; type: functional
[17] = test system: HOP-92; experiment: Antiproliferative activity against human HOP-92 cells; type: functional
[18] = test system: SK-MEL-28; experiment: Antiproliferative activity against human SK-MEL-28 cells; type: functional
[19] = test system: SNB-75; experiment: Antiproliferative activity against human SNB-75 cells; type: functional
[20] = test system: RXF 393; experiment: Antiproliferative activity against human RXF 393 cells; type: functional
[21] = test system: M14; experiment: Antiproliferative activity against human M14 cells; type: functional
[22] = test system: COLO 201; experiment: Induction of apoptosis in human COLO201 cells assessed as viable cells at 10 uM by Annexin V-FITC and PI staining based flow cytometry analysis (reference value: 90%); type: functional; settings: read-out: Activity
[23] = test system: CAKI-1; experiment: Antiproliferative activity against human CAKI-1 cells; type: functional
[24] = test system: ACHN; experiment: Antiproliferative activity against human ACHN cells; type: functional
[25] = test system: Hs-578T; experiment: Antiproliferative activity against human Hs-578T cells; type: functional
[26] = test system: MDA-MB-231; experiment: Antiproliferative activity against human MDA-MB-231 cells; type: functional
[27] = test system: COLO 201; experiment: Induction of apoptosis in human COLO201 cells assessed as necrotic cells at 2 uM by Annexin V-FITC and PI staining based flow cytometry analysis (reference value: 0.7%); type: functional
[28] = test system: COLO 201; experiment: Induction of apoptosis in human COLO201 cells assessed as late apoptotic cells at 0.2 uM by Annexin V-FITC and PI staining based flow cytometry analysis (reference value: 6.2%); type: functional
[29] = test system: K562; experiment: Antiproliferative activity against human K562 cells; type: functional
[30] = test system: NCI-H460; experiment: Antiproliferative activity against human NCI-H460 cells; type: functional
[31] = test system: UACC-257; experiment: Antiproliferative activity against human UACC-257 cells; type: functional
[32] = test system: SW-620; experiment: Antiproliferative activity against human SW620 cells; type: functional
[33] = test system: OVCAR-5; experiment: Antiproliferative activity against human OVCAR-5 cells; type: functional
[34] = test system: BT-549; experiment: Antiproliferative activity against human BT-549 cells; type: functional
[35] = test system: NCI-H23; experiment: Antiproliferative activity against human NCI-H23 cells; type: functional
[36] = test system: MDA-MB-468; experiment: Antiproliferative activity against human MDA-MB-468 cells; type: functional
[37] = test system: HCC 2998; experiment: Antiproliferative activity against human HCC 2998 cells; type: functional
[38] = test system: COLO 201; experiment: Induction of apoptosis in human COLO201 cells assessed as viable cells at 1 uM by Annexin V-FITC and PI staining based flow cytometry analysis (reference value: 90%); type: functional; settings: read-out: Activity
[39] = test system: HCT-15; experiment: Antiproliferative activity against human HCT-15 cells; type: functional
[40] = test system: SR; experiment: Antiproliferative activity against human SR cells; type: functional
[41] = test system: MCF7; experiment: Antiproliferative activity against human MCF7 cells; type: functional
[42] = test system: SK-OV-3; experiment: Antiproliferative activity against human SK-OV-3 cells; type: functional
[43] = test system: COLO 201; experiment: Antiproliferative activity against human COLO201 cells; type: functional
[44] = test system: COLO 201; experiment: Induction of apoptosis in human COLO201 cells assessed as viable cells at 0.2 uM by Annexin V-FITC and PI staining based flow cytometry analysis ( Rvb = 90%); type: functional; settings: read-out: Activity
[45] = test system: SN12C; experiment: Antiproliferative activity against human SN12C cells; type: functional
[46] = Antiproliferative activity against human […] cells; type: functional
[47] = test system: COLO 205; experiment: Antiproliferative activity against human COLO 205 cells; type: functional
[48] = test system: HL-60(TB); experiment: Antiproliferative activity against human HL-60(TB) cells; type: functional
[49] = test system: Malme-3M; experiment: Antiproliferative activity against human Malme-3M cells; type: functional
[50] = test system: UO-31; experiment: Antiproliferative activity against human UO-31 cells; type: functional
[51] = test system: KM12; experiment: Antiproliferative activity against human KM12 cells; type: functional
[52] = test system: MOLT-4; experiment: Antiproliferative activity against human MOLT-4 cells; type: functional
[53] = test system: SF-268; experiment: Antiproliferative activity against human SF-268 cells; type: functional
[54] = test system: OVCAR-3; experiment: Antiproliferative activity against human OVCAR-3 cells; type: functional
[55] = test system: HT-29; experiment: Antiproliferative activity against human HT-29 cells; type: functional
[56] = test system: COLO 201; experiment: Induction of apoptosis in human COLO201 cells assessed as early apoptotic cells at 0.2 uM by Annexin V-FITC and PI staining based flow cytometry analysis (reference value: 3.2%); type: functional
[57] = test system: SNB-19; experiment: Antiproliferative activity against human SNB-19 cells; type: functional
[58] = test system: U-251; experiment: Antiproliferative activity against human U-251 cells; type: functional
[59] = test system: NCI-H522; experiment: Antiproliferative activity against human NCI-H522 cells; type: functional
[60] = test system: A549; experiment: Antiproliferative activity against human A549 cells; type: functional
[61] = test system: A498; experiment: Antiproliferative activity against human A498 cells; type: functional
[62] = test system: COLO 201; experiment: Induction of apoptosis in human COLO201 cells assessed as necrotic cells at 0.2 uM by Annexin V-FITC and PI staining based flow cytometry analysis (reference value: 0.7%); type: functional
[63] = test system: COLO 201; experiment: Induction of apoptosis in human COLO201 cells assessed as increase in cleaved PARP level by Western blotting analysis; type: functional, cell-based; settings: dose 1-10 µM
[64] = test system: COLO 201; experiment: Induction of apoptosis in human COLO201 cells assessed as viable cells at 2 uM by Annexin V-FITC and PI staining based flow cytometry analysis (reference value: 90%); type: functional; settings: read-out: Activity
[65] = test system: MDA-MB-435; experiment: Antiproliferative activity against human MDA-MB-435 cells; type: functional
[66] = test system: DU-145; experiment: Antiproliferative activity against human DU-145 cells; type: functional
[67] = test system: HCT-116; experiment: Antiproliferative activity against human HCT-116 cells; type: functional
[68] = test system: HOP-62; experiment: Antiproliferative activity against human HOP-62 cells; type: functional
[69] = test system: COLO 201; experiment: Induction of apoptosis in human COLO201 cells assessed as late apoptotic cells at 1 uM by Annexin V-FITC and PI staining based flow cytometry analysis (reference value: 6.2%); type: functional
[70] = test system: COLO 201; experiment: Induction of apoptosis in human COLO201 cells assessed as late apoptotic cells at 2 uM by Annexin V-FITC and PI staining based flow cytometry analysis (reference value: 6.2%); type: functional
[71] = test system: COLO 201; experiment: Induction of apoptosis in human COLO201 cells assessed as late apoptotic cells at 10 uM by Annexin V-FITC and PI staining based flow cytometry analysis (reference value: 6.2%); type: functional
[72] = target: T1, Tyrosine-protein kinase Lck (Homo sapiens, UniProt P06239); experiment: Inhibition of LCK (unknown origin)
T1 sequence (P06239 whole entry, the tested form may be a part): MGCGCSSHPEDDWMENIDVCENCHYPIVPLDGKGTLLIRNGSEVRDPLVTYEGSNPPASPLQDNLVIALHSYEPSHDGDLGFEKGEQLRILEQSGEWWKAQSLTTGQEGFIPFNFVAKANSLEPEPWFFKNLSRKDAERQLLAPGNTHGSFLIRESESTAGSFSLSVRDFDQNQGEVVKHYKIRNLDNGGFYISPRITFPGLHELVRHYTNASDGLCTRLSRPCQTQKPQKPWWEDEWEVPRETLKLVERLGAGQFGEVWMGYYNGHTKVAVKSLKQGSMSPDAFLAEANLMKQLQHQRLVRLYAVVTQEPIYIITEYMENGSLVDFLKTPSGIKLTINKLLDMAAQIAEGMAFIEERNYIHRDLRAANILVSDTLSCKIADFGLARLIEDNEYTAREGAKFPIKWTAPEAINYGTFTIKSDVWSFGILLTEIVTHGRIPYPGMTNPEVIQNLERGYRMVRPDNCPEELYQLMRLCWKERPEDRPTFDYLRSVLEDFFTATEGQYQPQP

[73] = target: T1, Tyrosine-protein kinase Lck; experiment: Inhibition of recombinant human LCK (64 to 509 residues) incubated for 60 mins in presence of ATP by HTRF method

With `Cc1ccc(Nc2ncc3c(n2)N(C)C(=O)N(c2cc(NC(=O)c4ccc([N+](=O)[O-])c(OCC(C)C)c4)ccc2C)C3)cn1` the GI50 [1] was 210 nM, the Activity [2] was 13.9% and the GI50 [3] was 980 nM. The Activity [4] was 4.6%, the GI50 [5] was 200 nM and the GI50 [6] was 410 nM. For the same compound, the GI50 [7] was 450 nM, the Activity [8] was 17% and the GI50 [9] was 790 nM. The GI50 [10] was 92 nM, the GI50 [11] was 390 nM and the Activity [12] was 13.3%. For the same compound, the GI50 [13] was 700 nM, the Activity [14] was 7.4% and the GI50 [15] was 410 nM. It also gave a GI50 [16] of 3.53 µM, a GI50 [17] of 90 nM and a GI50 [18] of 240 nM. For the same compound, the GI50 [19] was 290 nM, the GI50 [20] was 94 nM and the GI50 [21] was 160 nM. For the same compound, the viability at 10 µM [22] was 54.4%, the GI50 [23] was 60 nM and the GI50 [24] was 150 nM. It also gave a GI50 [25] of 280 nM, a GI50 [26] of 130 nM and an Activity [27] of 5.2%. For the same compound, the Activity [28] was 11.7%, the GI50 [29] was 10 nM and the GI50 [30] was 430 nM. It also gave a GI50 [31] of 670 nM, a GI50 [32] of 520 nM and a GI50 [33] of 540 nM. It also gave a GI50 [34] of 1370 nM, a GI50 [35] of 499 nM and a GI50 [36] of 380 nM. It also gave a GI50 [37] of 1100 nM, a viability at 1 µM [38] of 61.3% and a GI50 [39] of 410 nM. It also gave a GI50 [40] of 180 nM, a GI50 [41] of 8.33 µM and a GI50 [42] of 190 nM. It also gave a GI50 [43] of 1260 nM, a viability at 0.2 µM [44] of 80.9% and a GI50 [45] of 170 nM. The GI50 [46] was 480 nM, the GI50 [47] was 240 nM and the GI50 [48] was 230 nM. The GI50 [49] was 200 nM, the GI50 [50] was 270 nM and the GI50 [51] was 740 nM. The GI50 [52] was 430 nM, the GI50 [53] was 490 nM and the GI50 [54] was 1090 nM. It also gave a GI50 [55] of 410 nM, an Activity [56] of 5.6% and a GI50 [57] of 3.92 µM. The GI50 [58] was 550 nM, the GI50 [59] was 300 nM and the GI50 [60] was 430 nM. The GI50 [61] was 220 nM, the Activity [62] was 1.8% and the Activity [63] was “Dose-Dependent Effect”. The viability at 2 µM [64] was 57.1%, the GI50 [65] was 250 nM and the GI50 [66] was 400 nM. The GI50 [67] was 330 nM and the GI50 [68] was 1130 nM.
`COc1cc(-c2nn(C3CCC(N4CCN(C(C)=O)CC4)CC3)c3ncnc(N)c23)ccc1NC(=O)c1cc2ccccc2n1C` (stereo unspecified) gave an Activity [2] of 3.4%, an Activity [4] of 1.2% and an Activity [8] of 7.1%. The Activity [12] was 16.9%, the Activity [14] was 3.8% and the Activity [69] was 6.6%. The Activity [70] was 8.5%, the viability at 10 µM [22] was 26.6% and the Activity [27] was 1.8%. For the same compound, the Activity [28] was 4.3%, the viability at 1 µM [38] was 88.7% and the viability at 0.2 µM [44] was 92.6%. For the same compound, the Activity [56] was 2.5%, the Activity [71] was 52.7% and the IC50 [72] was 147 nM. It also gave an IC50 [73] of 147 nM, an Activity [62] of 0.6% and a viability at 2 µM [64] of 82.6%.
